Data from US20110160222A1, “MODULATORS OF GLUCOSE HOMEOSTASIS FOR THE TREATMENT OF DIABETES AND METABOLIC DISORDERS” (Metabolex, Inc., priority 2008, published 2011).

target: T1, GPR119 (Homo sapiens, UniProt Q8TDV5); test: Stimulation of cAMP in CHO cells stably expressing GPR119 (HTRF/FRET cAMP immunoassay); type: cell-based; settings: 3 μM compound, 30 min, relative to maximal activity (=100%) of reference agonist 4-(4-{4-Nitro-3-[4-(pyridin-2-ylsulfanyl)-piperidin-1-yl]-phenoxy}-phenyl)-butan-2-one or 4-[6-(4-Methanesulfonyl-phenyl-amino)-5-nitro-pyrimidin-4-yl-oxy]-piperidine-1-carboxylic acid tert-butyl ester
T1 construct: expressed in transfected cells
T1 sequence (Q8TDV5 1-335): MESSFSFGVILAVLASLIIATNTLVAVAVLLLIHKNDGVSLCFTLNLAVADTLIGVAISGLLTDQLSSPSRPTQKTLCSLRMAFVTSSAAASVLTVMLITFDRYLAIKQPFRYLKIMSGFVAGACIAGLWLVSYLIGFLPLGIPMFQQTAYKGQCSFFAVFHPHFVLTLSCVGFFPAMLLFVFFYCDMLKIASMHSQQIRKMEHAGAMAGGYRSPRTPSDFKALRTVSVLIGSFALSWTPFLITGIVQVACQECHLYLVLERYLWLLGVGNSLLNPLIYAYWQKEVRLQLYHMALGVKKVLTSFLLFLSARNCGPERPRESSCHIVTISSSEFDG
Method: This assay was developed using a stable cell line expressing GPR119, generated as follows. GPR119 (co-pending, co-owned patent application U.S. Ser. No. 11/964,461) was cloned into Gateway pDEST 40vector (Invitrogen), using the Gateway cloning system (invitrogen) according to the manufacturer's instructions. A stable cell line was generated by transfecting a 10 cm plate of CHO cells (source) with 8 μg of this construct using Transit-CHO transfection kit (Mirus). CHO cells were plated the day prior to transfection at a density of 3,000,000 cells/plate. Clones were selected using the antibiotic G418 at 500 μg/mL. 23 clones were picked and assayed for the expression of the receptor by measuring changes in intracellular cAMP levels in response to a known GPR119 agonist.
To measure cAMP activity in response to GPR119 agonist, the clones were plated in 96 well plates at 17500 cells per well. On the day after plating, cells were incubated with the GPR119 agonist at 10 μM for 30 minutes in Ham's F12 Media (Gibco) with 0.04% DMSO. cAMP was measured using the cAMP dynamic kit from C is Bio (Bedford, Mass.) according to the manufacturer's instructions. Briefly, cells were lysed, and cAMP levels determined by competitive immunoassay using D2 labeled cAMP, and europium cryptate tagged anti cAMP antibody. When in close proximity, the D2 and europium cryptate undergo fluorescence resonance energy transfer (FRET), which is measured as a fluorescence ratio (665 nm/620 nm). Unlabelled cAMP in the cell lysate competed with the D2 labeled cAMP for the europium crypate labeled antibody. The resulting decrease in FRET signal corresponded to intracellular cAMP levels. Fluorescence was read on a BMG Labtech PHERAstar, software version 1.50.
The clone with the greatest response to IC-GPCR2 agonist was selected for the screening assay.
Compounds were dissolved in 100% DMSO to a concentration of […] to provide stock solutions. To determine activity against GPR119, compounds were incubated with GPR119 stably expressing cells (described above), at 6-8 concentrations ranging from 0.00003 to 10 micromolar, in 96 well plates, in 50 μl of Ham's F12 media for 30 minutes. Cells were plated at 17500 cells per well 1 day before running the assay. All compounds were also screened against the parental CHO cells. cAMP was measured using the cAMP dynamic kit from C is Bio (Bedford, Mass.), according to the manufacturer's instructions. Briefly, cells were lysed and cAMP levels determined by competitive immunoassay using D2 labeled cAMP, and europium cryptate tagged anti cAMP antibody. When in close proximity, the D2 and europium cryptate undergo fluorescence resonance energy transfer (FRET), which is measured as a fluorescence ratio (665 nm/620 nm). Unlabelled cAMP in the cell lysate competed with the D2 labeled cAMP for the europium crypate labeled antibody. The resulting decrease in FRET signal corresponded to intracellular cAMP levels.
To determine percent activity for a tested compound, the FRET signal value obtained at a particular concentration are compared to the Maximal FRET signal value obtained for 4-(4-{4-Nitro-3-[4-(pyridin-2-ylsulfanyl)-piperidin-1-yl]-phenoxy}-phenyl)-butan-2-one (WO 2004/076,413) or 4-[6-(4-Methanesulfonyl-phenyl-amino)-5-nitro-pyrimidin-4-yl-oxy]-piperidine-1-carboxylic acid tert-butyl ester (US 2005/070,562). The maximal activity of 4-(4-{4-Nitro-3-[4-(pyridin-2-ylsulfanyl)-piperidin-1-yl]-phenoxy}-phenyl)-butan-2-one or 4-[6-(4-Methanesulfonyl-phenyl-amino)-5-nitro-pyrimidin-4-yl-oxy]-piperidine-1-carboxylic acid tert-butyl ester is designated as 100% activity. Typically, the concentration 4-(4-{4-Nitro-3-[4-(pyridin-2-ylsulfanyl)-piperidin-1-yl]-phenoxy}-phenyl)-butan-2-one or 4-[6-(4-Methanesulfonyl-phenyl-amino)-5-nitro-pyrimidin-4-yl-oxy]-piperidine-1-carboxylic acid tert-butyl ester was approximately 10 μM. […]

% Activity at 3 uM [%] | Compound
1.95 | CN(c1ccc(S(C)(=O)=O)cc1)c1ncnc2c1nnn2C1CCN(C(=O)OC(C)(C)C)CC1 [Example 67, tert-butyl 4-(7-(methyl(4-(methylsulfonyl)phenyl)amino)-3H-[1,2,3]triazolo[4,5-d]pyrimidin-3-yl)piperidine-1-carboxylate]
56.96 | CC(C)(C)OC(=O)N1CCC(n2ncc3c(Oc4ccc(Oc5ccccc5)cc4)ncnc32)CC1 [Example 6, tert-butyl 4-(4-(4-phenoxyphenoxy)-1H-pyrazolo[3,4-d]pyrimidin-1-yl)piperidine-1-carboxylate]
59.01 | CC(C)(C)OC(=O)N1CCC(n2nnc3c(Oc4ccc(S(C)(=O)=O)cc4)ncnc32)CC1 [Example 68, tert-butyl 4-(7-(4-(methylsulfonyl)phenoxy)-3H-[1,2,3]triazolo[4,5-d]pyrimidin-3-yl)piperidine-1-carboxylate]
59.61 | CC(C)(C)OC(=O)N1CCC(Cn2ncc3c(Oc4ccc(S(C)(=O)=O)cc4)ncnc32)CC1 [Example 50, tert-butyl 4-((4-(4-(methylsulfonyl)phenoxy)-1H-pyrazolo[3,4-d]pyrimidin-1-yl)methyl)piperidine-1-carboxylate]
67.37 | CC(C)(C)OC(=O)N1CCC(Cn2ncc3c(Oc4ccc(-n5cncn5)cc4)ncnc32)C1 (stereo not shown) [Example 62, tert-butyl 3-((4-(4-(1H-1,2,4-triazol-1-yl)phenoxy)-1H-pyrazolo[3,4-d]pyrimidin-1-yl)methyl)pyrrolidine-1-carboxylate]
74.66 | CC(C)(C)OC(=O)N1CCC(Cn2ncc3c(Oc4ccc(S(C)(=O)=O)cc4)ncnc32)C1 (stereo not shown) [Example 61, tert-butyl 3-((4-(4-(methylsulfonyl)phenoxy)-1H-pyrazolo[3,4-d]pyrimidin-1-yl)methyl)pyrrolidine-1-carboxylate]
24.15 | CS(=O)(=O)c1ccc(Oc2ncnc3c2cnn3C2CCN(S(=O)(=O)Cc3ccccc3)CC2)cc1 [Example 65, 1-(1-(benzylsulfonyl)piperidin-4-yl)-4-(4-(methylsulfonyl)phenoxy)-1H-pyrazolo[3,4-d]pyrimidine]
2.07 | Cc1ccc(S(=O)(=O)N2CCC(n3ncc4c(Oc5ccc(S(C)(=O)=O)cc5)ncnc43)CC2)cc1 [Example 64, 4-(4-(methylsulfonyl)phenoxy)-1-(1-tosylpiperidin-4-yl)-1H-pyrazolo[3,4-d]pyrimidine]
69.8 | COc1ccc(Oc2ncnc3c2cnn3C2CCN(C(=O)OC(C)(C)C)CC2)cc1 [Example 2, tert-butyl 4-(4-(4-methoxyphenoxy)-1H-pyrazolo[3,4-d]pyrimidin-1-yl)piperidine-1-carboxylate]
9.73 | CS(=O)(=O)c1ccc(Oc2ncnc3c2cnn3C2CCN(S(=O)(=O)C3CC3)CC2)cc1 [Example 66, 1-(1-(cyclopropylsulfonyl)piperidin-4-yl)-4-(4-(methylsulfonyl)phenoxy)-1H-pyrazolo[3,4-d]pyrimidine]
12.73 | CC(C)(C)OC(=O)N1CCC(n2ncc3c(Oc4ccc(Oc5ccc(C(F)(F)F)cc5)cc4)ncnc32)CC1 [Example 3, tert-butyl 4-(4-(4-(4-(trifluoromethyl)phenoxy)phenoxy)-1H-pyrazolo[3,4-d]pyrimidin-1-yl)piperidine-1-carboxylate]
60.11 | CC(C)(C)OC(=O)N1CCC(n2ncc3c(Sc4ccc(S(C)(=O)=O)cc4)ncnc32)CC1 [Example 5, tert-butyl 4-(4-(4-(methylsulfonyl)phenylthio)-1H-pyrazolo[3,4-d]pyrimidin-1-yl)piperidine-1-carboxylate]
69.49 | CC(C)(C)OC(=O)N1CCC(n2ncc3c(Oc4ccc(-n5ccnc5)cc4)ncnc32)CC1 [Example 4, tert-butyl 4-(4-(4-(1H-imidazol-1-yl)phenoxy)-1H-pyrazolo[3,4-d]pyrimidin-1-yl)piperidine-1-carboxylate]
48.23 | CCOC(=O)N1CCC(n2nnc3c(Oc4ccc(S(C)(=O)=O)cc4)ncnc32)CC1 [Example 69, ethyl 4-(7-(4-(methylsulfonyl)phenoxy)-3H-[1,2,3]triazolo[4,5-d]pyrimidin-3-yl)piperidine-1-carboxylate]
51.02 | CC(C)CS(=O)(=O)N1CCC(n2ncc3c(Oc4ccc(S(C)(=O)=O)cc4)ncnc32)CC1 [Example 63, 1-(1-(isobutylsulfonyl)piperidin-4-yl)-4-(4-(methylsulfonyl)phenoxy)-1H-pyrazolo[3,4-d]pyrimidine]
59.01 | CC(C)(C)OC(=O)N1CCC(n2ncc3c(Oc4ccc(S(C)(=O)=O)cc4)ncnc32)CC1 [Example 1, tert-butyl 4-(4-(4-(methylsulfonyl)phenoxy)-1H-pyrazolo[3,4-d]pyrimidin-1-yl)piperidine-1-carboxylate]
